# Entries after “also recorded” stand apart in the source; their conditions may differ. Where a name gives a salt, the structure may show the parent alone.
# Experiments:
# MCF7 = assay: MTS cell number assay (CellTiter 96), ER+ breast cancer cells; type: cell-based; settings: Homo sapiens, 1 mM, 72 hours, MTS method, read-out: ER+ BC MCF7, cell numbers as percentage of vehicle treated controls
# Protocol: FIG. 1. Metformin analogues inhibit growth/survival of ER+ MCF7 breast cancer cells. MCF7 cells were cultured in medium containing different concentrations of metformin and analogues (0.1, 1 and 5 mM). After 3 days, the percentage of surviving cells relative to controls, defined as 100% survival, was determined by the MTS assay. Data represents three independent experiments.
# Compounds described herein (e.g. metformin derivatives and/or analogues) were tested in human MCF-7 breast cancer cells, a standard ERalpha-positive model of breast malignancy (FIG. 1), and in four different cell lines classified as TNBC, including MDA-MB-231, HCC1937, HCC38 and HCC1806 (FIGS. 2A-2D). […] Experiments were also performed in: 1) a non-small cell lung cancer cell line that is known to be resistant to standard chemotherapy (A549); and 2) a melanoma-like cell model (MDA-MB-435). To find if analogues have effects on normal cells compounds were tested in two different types of cells, human umbilical vein endothelial cells (HUVEC) and human mammary epithelial cells (HMEC). The effects of metformin (MET) were compared with compounds JD001-JD009.
# (§1) Cells were incubated in the presence of vehicle, metformin or metformin analogues for 72 hours in their respective media. After treatment cell numbers were determined with the MTS method using the CellTiter 96 Aqueous Non-Radioactive Cell Proliferation Assay (Promega). Numbers express percentage of vehicle treated controls at 1 mM concentration metformin or metformin analogues (JD001-JD009). TNBC: Triple Negative Breast Cancer Cells, ER+BC: Estrogen receptor positive breast cancer.
# HUVEC = assay: MTS cell number assay (CellTiter 96), normal cells; type: cell-based; settings: Homo sapiens, 1 mM, 72 hours, MTS method, read-out: Biodata Normal HUVEC, cell numbers as percentage of vehicle treated controls
# Protocol: (§2) FIGS. 4A-4B. Effects of metformin and metformin analogues on normal cells. HMEC (FIG. 4A) and HUVEC (FIG. 4B) cells were plated in special media. After 24 hours, cells were treated with increasing concentrations of metformin and analogues JD001-JD009 (0.1, 1 and 5 mM). After 3 days, MTS assay was performed. Survival is expressed as percentage of vehicle treated control. Data represents at least two experiments.
# (§3) The effects of compounds described herein (including embodiments) (e.g. metformin analogues) were determined on two types of normal nonmalignant human cells, human umbilical vein endothelial cells (HUVEC) and human mammary epithelial cells (HMEC). There were no significant biologic effects noted on exposure to the metformin analogues.
# as §1
# HMEC = assay: MTS cell number assay (CellTiter 96), normal cells; type: cell-based; settings: Homo sapiens, 1 mM, 72 hours, MTS method, read-out: Biodata Normal HMEC, cell numbers as percentage of vehicle treated controls
# Protocol: as §2, §3, §1
# HCC1806 = assay: MTS cell number assay (CellTiter 96), TNBC cells; type: cell-based; settings: 1 mM, 72 hours, MTS method
# Protocol: (§4) FIGS. 2A-2D. Metformin analogues inhibit growth/survival of triple negative breast cancer cells. MDA-MB-231 (FIG. 2A), HCC38 (FIG. 2B), HCC1937 (FIG. 2C) and HCC1806 (FIG. 2D) cells were cultured in medium containing 1% fetal bovine serum and increasing concentrations of metformin and analogues JD001-JD009 (0.1, 1 and 5 mM). After 3 days, MTS assay was performed. The percentage of surviving cells relative to controls, defined as 100% survival, was determined by the MTS assay.
# as §1
# MDA-MB-231 = assay: MTS cell number assay (CellTiter 96), TNBC cells; type: cell-based; settings: Homo sapiens, 1 mM, 72 hours, MTS method, read-out: Biodata TNBC MDA-MB-231, cell numbers as percentage of vehicle treated controls
# Protocol: as §4, §1
# HCC1937 = assay: MTS cell number assay (CellTiter 96), TNBC cells; type: cell-based; settings: 1 mM, 72 hours, MTS method
# Protocol: as §4, §1
# HCC38 = assay: MTS cell number assay (CellTiter 96), TNBC cells; type: cell-based; settings: 1 mM, 72 hours, MTS method
# Protocol: as §4, §1
# A549 = assay: MTS cell number assay (CellTiter 96), NSCLC cells; type: cell-based; settings: Homo sapiens, 1 mM, 72 hours, MTS method, read-out: Biodata extra A549, cell numbers as percentage of vehicle treated controls
# Protocol: (§5) FIGS. 3A-3B. Metformin analogues inhibit survival of non-small cell lung cancer (NSCLC) (FIG. 3A) and melanoma cell lines (FIG. 3B). A549 (NSCLC) and MDA-MB-435 (melanoma) cells were cultured in medium containing 1% fetal bovine serum and increasing concentrations of metformin (MET) and analogues JD001-JD007 (0.1, 1 and 5 mM). After 3 days, MTS assay was performed. Survival is expressed as percentage of control defined at 100%.
# as §1
# MDA-MB-435 = assay: MTS cell number assay (CellTiter 96), melanoma cells; type: cell-based; settings: 1 mM, 72 hours, MTS method
# Protocol: as §5, §1
# MCF-7 cells = assay: Cell proliferation ELISA, BrdU colorimetric kit; type: cell-based, human; settings: 0.1 mM and 1 mM, BrdU incorporation, 1% FBS, P<0.01
# Protocol: FIGS. 6A-6C. […] Proliferation was assessed using cell proliferation ELISA, BrdU colorimetric kit (Roche). Cells were counted using a hemocytometer and plated. After 24 hrs, cells were treated with metformin and analogs JD003 and JD004 at 0.1 mM and 1 mM doses using phenol-red free medium with 1% FBS. After 48 hr, BrDU labeling solution was added and incubated for 24 h. Proliferation was assessed using BrDU incorporation by ELISA during DNA synthesis in proliferating cells. Data shown as % control (mean±SE) (n=3 experiments).
# We hypothesize that metformin analogs can be prepared with enhanced anticancer activity and minimal non-target toxicity. […] Human pancreatic cancer cells PANC-1, were grown in DMEM with 2 mM glutamine, 1 mM sodium pyruvate, 100 units/mL penicillin, 100 μg/mL streptomycin and 10% FBS at 37 C in a humidified atmosphere with 10% CO2. Then, effects of treatment with metformin or analog JD003 on cell proliferation in vitro were tested. […] In contrast, minimal antiproliferative effects are detected in nonmalignant human epithelial cells. […]
# Cell proliferation screening assays were done using cell proliferation ELISA, BrdU colorimetric kit (Roche). Cells were counted using a hemocytometer and plated in 96-well plates. […] Cell proliferation were quantitated based on measures of BrDU incorporation (by ELISA) during DNA synthesis in proliferating cells. […] Results were expressed as mean±SE. […]
SMILES,viability at 1000 µM (MCF7) [%],viability at 1000 µM (HUVEC) [%],viability at 1000 µM (HMEC) [%],"Biodata TNBC HCC1806, cell numbers as percentage of vehicle treated controls (HCC1806)",viability at 1000 µM (MDA-MB-231) [%],"Biodata TNBC HCC1937, cell numbers as percentage of vehicle treated controls (HCC1937)","Biodata TNBC HCC38, cell numbers as percentage of vehicle treated controls (HCC38)",viability at 1000 µM (A549) [%],"Biodata extra MDA-MB-435, cell numbers as percentage of vehicle treated controls (MDA-MB-435)",Blocking proliferation of MCF-7 cells compared with metformin (MCF-7 cells)
"N=C(NC(=N)N1CCCCC1)N1CCCCC1 [JD002, N-(Imino(piperidin-1-yl)methyl)piperidine-1-carboximidamide hydrochloride]",46.2,70,62.6,36.4 percentage of vehicle treated controls,48.5,17.1 percentage of vehicle treated controls,44.7 percentage of vehicle treated controls,4.6,39.8 percentage of vehicle treated controls,–
"CN(C)C(=N)NC(=N)N1CCOCC1 [JD007, N—(N,N-Dimethylcarbamimidoyl)morpholine-4-carboximidamide hydrochloride]",65.8,112,105,65.7 percentage of vehicle treated controls,64.3,–,83.6 percentage of vehicle treated controls,82.3,–,–
"CON(C)C(=N)NC(=N)N [JD001, N-Methoxyl-N-methylbiguanide hydrochloride]",82.3,84.4,101,80.1 percentage of vehicle treated controls,92,68.9 percentage of vehicle treated controls,102.5 percentage of vehicle treated controls,62.6,102.1 percentage of vehicle treated controls,–
"N=C(NC(=N)N1CCCC1)N1CCCCC1 [JD005, N-(Imino(pyrrolidin-1-yl)methyl)piperidine-1-carboximidamide hydrochloride]",58.2,54.6,67.6,55.8 percentage of vehicle treated controls,46.6,15.7 percentage of vehicle treated controls,43.4 percentage of vehicle treated controls,32.4,42.2 percentage of vehicle treated controls,–
"N=C(NC(=N)N1CCCC1)N1CCCC1 [JD006, N-(Imino(pyrrolidin-1-yl)methyl)pyrrolidine-1-carboximidamide hydrochloride]",59.7,113,96.6,–,–,–,–,59.7,–,–
"CN1CCN(C(=N)NC(=N)N2CCN(C)CC2)CC1 [JD004, N-(Imino(4-methylpiperazin-1-yl)methyl)-4-methylpiperazine-1-carboximidamide hydro-chloride]",84.4,89.1,113,–,89.2,64 percentage of vehicle treated controls,–,74.3,59.6 percentage of vehicle treated controls,more effective in blocking proliferation of MCF-7 cells; also recorded: enhanced antiproliferative activity in breast cancer cells as compared to metformin
"CCCN(C)C(=N)NC(=N)N [JD008, N-Methyl-N-propylbiguanide hydrochloride]",52.2,37.7,70.9,52.7 percentage of vehicle treated controls,38.6,–,55.6 percentage of vehicle treated controls,–,–,–
"CC1CCN(C(=N)NC(=N)N)CC1 [JD009, N-Carbamimidoyl-4-methylpiperidine-1-carboximidamide, hydrochloride]",52.7,39.5,48.8,7.3 percentage of vehicle treated controls,0.3,–,0 percentage of vehicle treated controls,–,–,–
